# PubChem BioAssay AID276 (DTP/NCI, 2004)
# Values joined by “and” are separate entries in the source; they are usually repeats but may differ in a detail not shown here. Equal values may be shown once. Toxic doses and inconclusive results are not listed.
# Tested on: B6C3F1 mice, Lewis lung carcinoma iv, survival T/C
# Experiment: NCI In Vivo Anticancer Drug Screen. Data for tumor model Lewis Lung Carcinoma (intravenous) in B6C3F1 mice
# Settings: endpoint: median survival time, schedule: Q01DX009 (ip), higher = longer survival
# Method: The antitumor activity of compounds was measured in mice bearing transplantable tumors. Survival or tumor size were measured and the results are expressed as the measurement made in the treated group (T) divided by the measurement made in the vehicle treated control group (C). The tumor model used in this assay is Lewis Lung Carcinoma (intravenous) in B6C3F1 mice
# [1] = dose: 12.5 mg/kg/injection, vehicle: saline
# [2] = dose: 25.0 mg/kg/injection, vehicle: saline
# [3] = dose: 50.0 mg/kg/injection, vehicle: saline
# [4] = dose: 25.0 mg/kg/injection, vehicle: saline with Tween-80
# [5] = dose: 50.0 mg/kg/injection, vehicle: saline with Tween-80
# [6] = dose: 100.0 mg/kg/injection, vehicle: water
# [7] = dose: 16.0 mg/kg/injection, vehicle: saline with Tween-80
# [8] = dose: 6.25 mg/kg/injection, vehicle: saline with Tween-80
# [9] = dose: 12.5 mg/kg/injection, vehicle: saline with Tween-80
# [10] = dose: 100.0 mg/kg/injection, vehicle: saline with Tween-80
# [11] = dose: 200.0 mg/kg/injection, vehicle: saline with Tween-80
# [12] = dose: 1.56 mg/kg/injection, vehicle: saline
# [13] = dose: 3.12 mg/kg/injection, vehicle: saline
# [14] = dose: 6.25 mg/kg/injection, vehicle: saline
# [15] = dose: 1.0 mg/kg/injection, vehicle: saline
structure (smiles),measurement,setting,value
COc1cc(C2c3cc4c(cc3[C@@H](OC3OC5CO[C@@H](C)OC5C(O)C3O)[C@H]3COC(=O)C23)OCO4)cc(OC)c1OC (some centres not stated),T/C,[1],113 % of control
same,T/C,[2],121 % of control
same,T/C,[3],117 % of control
same,T/C,"dose: 100.0 mg/kg/injection, vehicle: saline",191 % of control
COC1CC(C)C(OC)c2cc(O)cc(c2O)NC(=O)/C(C)=C/C=C\C(C)C(OC(N)=O)/C(C)=C\C(C)C1OC (configuration not stated),T/C,"dose: 5.0 mg/kg/injection, vehicle: saline + alcohol",115 % of control
same,T/C,"dose: 10.0 mg/kg/injection, vehicle: saline + alcohol",88 % of control
c1ccc(P(CCNCCP(c2ccccc2)c2ccccc2)c2ccccc2)cc1,T/C,[4],104 % of control
same,T/C,[5],97 % of control
NC(=O)c1c[se]c(C2OC(CO)C(O)C2O)n1 (configuration not stated),T/C,"dose: 0.75 mg/kg/injection, vehicle: water",107 % of control
same,T/C,"dose: 1.5 mg/kg/injection, vehicle: water",110 % of control
same,T/C,"dose: 3.0 mg/kg/injection, vehicle: water",152 % of control and 153 % of control
same,T/C,"dose: 6.0 mg/kg/injection, vehicle: water",297 % of control
same,T/C,"dose: 12.0 mg/kg/injection, vehicle: water",297 % of control and 355 % of control
same,T/C,"dose: 13.0 mg/kg/injection, vehicle: water",315 % of control
same,T/C,"dose: 24.0 mg/kg/injection, vehicle: water",297 % of control
same,T/C,"dose: 25.0 mg/kg/injection, vehicle: water",355 % of control
same,T/C,"dose: 33.0 mg/kg/injection, vehicle: water",94 % of control
same,T/C,"dose: 75.0 mg/kg/injection, vehicle: water",315 % of control
same,T/C,[6],120 % of control
Cc1[nH]ccc(=O)c1O,T/C,[7],87 % of control
same,T/C,"dose: 32.0 mg/kg/injection, vehicle: saline with Tween-80",95 % of control
same,T/C,"dose: 64.0 mg/kg/injection, vehicle: saline with Tween-80",101 % of control
same,T/C,"dose: 128.0 mg/kg/injection, vehicle: saline with Tween-80",108 % of control
same,T/C,"dose: 256.0 mg/kg/injection, vehicle: saline with Tween-80",99 % of control
NC(=O)c1ccc[n+](Cc2c(Cl)cccc2Cl)c1,T/C,"dose: 5.0 mg/kg/injection, vehicle: saline",104 % of control
same,T/C,"dose: 10.0 mg/kg/injection, vehicle: saline",105 % of control
same,T/C,"dose: 20.0 mg/kg/injection, vehicle: saline",104 % of control
same,T/C,"dose: 40.0 mg/kg/injection, vehicle: saline",91 % of control
O=C1CN(CCN2CC(=O)N(CN3CCOCC3)C(=O)C2)CC(=O)N1CN1CCOCC1,T/C,[6],100 % of control
NC(Cc1ccc(N(CCCl)CCCl)cc1)C(=O)O (configuration not stated),T/C,"dose: 1.0 mg/kg/injection, vehicle: saline with Tween-80",98 % of control
same,T/C,"dose: 2.0 mg/kg/injection, vehicle: saline with Tween-80",100 % of control
same,T/C,"dose: 4.0 mg/kg/injection, vehicle: saline with Tween-80",104 % of control
same,T/C,[7],101 % of control
C=C(C)C(=NC(C)(C)C)Nc1ccccc1,T/C,[8],99 % of control
same,T/C,[9],99 % of control
same,T/C,[4],90 % of control
same,T/C,[5],86 % of control
same,T/C,[10],99 % of control
same,T/C,[11],90 % of control
CCN(CC)CC[n+]1ccc2c(C)c3[nH]c4ccc(O)cc4c3c(C)c2c1,T/C,[12],95 % of control
same,T/C,"dose: 1.56 mg/kg/injection, vehicle: suspension in saline",106 % of control
same,T/C,[13],100 % of control
same,T/C,"dose: 3.12 mg/kg/injection, vehicle: suspension in saline",100 % of control
same,T/C,[14],106 % of control
same,T/C,"dose: 6.25 mg/kg/injection, vehicle: suspension in saline",116 % of control
same,T/C,[1],98 % of control
CC(C)(C)N1CC1CNC(=O)C(=O)NCC1CN1C(C)(C)C (configuration not stated),T/C,"dose: 0.39 mg/kg/injection, vehicle: saline with Tween-80",99 % of control
same,T/C,"dose: 0.78 mg/kg/injection, vehicle: saline with Tween-80",102 % of control and 108 % of control
same,T/C,"dose: 1.56 mg/kg/injection, vehicle: saline with Tween-80",105 % of control and 106 % of control
same,T/C,"dose: 3.12 mg/kg/injection, vehicle: saline with Tween-80",101 % of control and 122 % of control
same,T/C,[8],104 % of control and 111 % of control
same,T/C,[9],108 % of control and 123 % of control
O=C(CCCCCCC(=O)ON1C(=O)CCC1=O)ON1C(=O)CCC1=O,T/C,[4],94 % of control
same,T/C,[5],94 % of control
same,T/C,[10],93 % of control
BrC[P+](CBr)(CBr)CBr,T/C,[9],93 % of control
same,T/C,[4],102 % of control
same,T/C,[5],97 % of control
same,T/C,[10],97 % of control
same,T/C,[11],89 % of control
same,T/C,"dose: 400.0 mg/kg/injection, vehicle: saline with Tween-80",95 % of control
Brc1c(NC2=NCCN2)ccc2nccnc12,T/C,[12],103 % of control
same,T/C,[13],114 % of control
same,T/C,[14],100 % of control
same,T/C,[1],101 % of control
same,T/C,[2],101 % of control
same,T/C,[3],112 % of control
Cc1c(N)nc([C@H](CC(N)=O)NC[C@H](N)C(N)=O)nc1C(=O)N[C@H](C(=O)N[C@H](C)[C@@H](O)[C@H](C)C(=O)N[C@H](C(=O)NCCc1nc(-c2nc(C(=O)NCCC[S+](C)C)cs2)cs1)[C@@H](C)O)C(OC1OC(CO)C(O)C(O)C1OC1OC(CO)C(O)C(OC(N)=O)C1O)c1cnc[nH]1 (some centres not stated),T/C,[15],113 % of control
same,T/C,"dose: 2.0 mg/kg/injection, vehicle: saline",97 % of control and 104 % of control and 112 % of control
COC(=O)NC1C(C)OC(OC2C/C=C(/C)C3C=CC4C(OC5CC(OC6CCC(OC7CC(O)C(OC8CCC(O)C(C)O8)C(C)O7)C(C)O6)C(OC(C)=O)C(C)O5)C(C)CC(C)C4C3(C)/C(O)=C3/C(=O)OC4(CC(C=O)=CC(O)C4/C=C\2C)C3=O)CC1(C)[N+](=O)[O-] (configuration not stated),T/C,"dose: 1.25 mg/kg/injection, vehicle: water",108 % of control
same,T/C,"dose: 2.5 mg/kg/injection, vehicle: water",97 % of control
same,T/C,"dose: 5.0 mg/kg/injection, vehicle: water",98 % of control
CCOC(=O)N1Cc2cc3cc(Cl)ccc3nc2C1,T/C,"dose: 7.5 mg/kg/injection, vehicle: saline with Tween-80",100 % of control
same,T/C,"dose: 15.0 mg/kg/injection, vehicle: saline with Tween-80",98 % of control
same,T/C,"dose: 30.0 mg/kg/injection, vehicle: saline with Tween-80",100 % of control
same,T/C,"dose: 60.0 mg/kg/injection, vehicle: saline with Tween-80",100 % of control
same,T/C,"dose: 120.0 mg/kg/injection, vehicle: saline with Tween-80",105 % of control
COc1cc2c(c(OC)c1OC)-c1ccc(OC)c(=O)cc1[C@@H](NC(=O)CCl)CC2,T/C,"dose: 0.03 mg/kg/injection, vehicle: saline with Tween-80",114 % of control
same,T/C,"dose: 0.06 mg/kg/injection, vehicle: saline with Tween-80",102 % of control
same,T/C,"dose: 0.12 mg/kg/injection, vehicle: saline with Tween-80",114 % of control
same,T/C,"dose: 0.25 mg/kg/injection, vehicle: saline with Tween-80",106 % of control
CNC(=O)O/N=C(\CN=[N+]=[N-])C(C)(C)C,T/C,"dose: 0.13 mg/kg/injection, vehicle: saline",102 % of control
same,T/C,"dose: 0.25 mg/kg/injection, vehicle: saline",102 % of control
same,T/C,"dose: 0.5 mg/kg/injection, vehicle: saline",106 % of control
same,T/C,[15],105 % of control
Nc1ccc2c(c1)CN1C(=O)c3ccccc3C1=N2,T/C,[4],117 % of control
same,T/C,[5],116 % of control
